Our source for the Activity and IC50 values is ChEMBL document CHEMBL1157386, “A C-3 methylated isocembranoid and 10-oxocembranoids from a formosan soft coral, Sinularia grandilobata” (J Nat Prod, 2008).

In one test the test system is MCF7. Briefly: Cytotoxicity against human MCF7 cells by MTT assay. It is filed as functional, cell-based. A general note: Formazan colour is commonly taken as a measure of viable cells.
The next test deals with A549. Briefly: Cytotoxicity against human A549 cells by MTT assay. It is filed as functional, cell-based.
The next test relates to MDA-MB-23. Briefly: (§1) Cytotoxicity against human […] by MTT assay. It is filed as functional, cell-based.
A further test relates to HepG2. The experiment in a line: Cytotoxicity against human HepG2 cells by MTT assay. The class given is functional, cell-based.
Test [1] has as its system RAW264.7. The experiment in a line: Antiinflammatory activity in LPS-stimulated mouse RAW264.7 cells assessed as reduction of COX2 expression by immunoblot analysis relative to control. The class given is functional, cell-based. On the technique in general: A western blot detects proteins with antibodies after separation by electrophoresis.
The test system of test [2] is RAW264.7. Briefly: Antiinflammatory activity in LPS-stimulated mouse RAW264.7 cells assessed as reduction of iNOS levels at 50 uM by immunoblot analysis relative to control. It is filed as functional.
In test [3] the test system is RAW264.7. The experiment in a line: Induction of COX2 expression in LPS-stimulated mouse RAW264.7 cells at 50 uM by immunoblot analysis relative to control. It is filed as functional.
Test [4] concerns RAW264.7. The experiment in a line: Induction of iNOS levels in LPS-stimulated mouse RAW264.7 cells at 50 uM by immunoblot analysis relative to control. The class given is functional.
The nature of test [5]: as §1. The class given is functional, cell-based.

By IC50 is commonly meant the concentration at which inhibition is half-maximal.

SMILES strings stand for the structures. ≈ marks a conversion by molar mass, not a printed value. Calls of active or inactive are those of the source. The calls are words filed in the database; no cut-off is given here.

On to `C/C1=C/C(=O)C[C@@H](C)CC/C(C(C)(C)O)=C\C=C(/C)CCC1`, for which the outcome with MCF7, in the test on A549, in the test on MDA-MB-23 and with HepG2 was inactive.
On to `C/C1=C\CCC(=O)[C@H](C)/C=C(/C(C)(C)O)CC[C@H](C)CC(=O)C1`, for which the outcome with MCF7, in the test on A549, in the test on MDA-MB-23 and with HepG2 was inactive.
In the case of `CO[C@@]1(C(C)(C)O)/C=C/[C@](C)(O)CC/C=C(\C)CC(=O)C[C@@H](C)CC1` (relative stereo), the outcome with MCF7, in the test on A549, with MDA-MB-23 and with HepG2 was inactive.
For `C/C1=C\CC[C@]2(C)O[C@H]2/C=C(/C(C)(C)O)CC[C@H](C)CC(=O)C1` (relative stereo) [GRANDILOBATIN B], the result in the test with RAW264.7 [1], in the test with RAW264.7 [2], with MCF7, with A549, in the test with MDA-MB-23 and in the test with HepG2 was inactive. The Activity in the test with RAW264.7 [3] is on record as 117.3%; with RAW264.7 [4], 112.4%.
Take `C/C1=C\C=C(\C(C)(C)O)CC[C@H](C)CC(=O)C/C(C)=C/CC1` [GRANDILOBATIN D]: the result in the test on RAW264.7 [1], in the test on MCF7, with A549 and with HepG2 was inactive. In addition, the Activity in the test with RAW264.7 [2] is recorded as 28.7%. In [5], this compound yielded a half-inhibitory concentration (IC50) of 15.8 µg/mL (≈ 51.9 µM).
